Laboratory results taken from patent US20240051985A1, “METTL3 MODULATORS” (ACCENT THERAPEUTICS, INC., priority 2020, published 2024).

Tests used:
FLT3 [1] = target: T1, FLT3 (Homo sapiens, UniProt P36888); test: FLT3 LanthaScreen assay; type: biochemical; details: Table 4
T1 sequence (P36888 27-993): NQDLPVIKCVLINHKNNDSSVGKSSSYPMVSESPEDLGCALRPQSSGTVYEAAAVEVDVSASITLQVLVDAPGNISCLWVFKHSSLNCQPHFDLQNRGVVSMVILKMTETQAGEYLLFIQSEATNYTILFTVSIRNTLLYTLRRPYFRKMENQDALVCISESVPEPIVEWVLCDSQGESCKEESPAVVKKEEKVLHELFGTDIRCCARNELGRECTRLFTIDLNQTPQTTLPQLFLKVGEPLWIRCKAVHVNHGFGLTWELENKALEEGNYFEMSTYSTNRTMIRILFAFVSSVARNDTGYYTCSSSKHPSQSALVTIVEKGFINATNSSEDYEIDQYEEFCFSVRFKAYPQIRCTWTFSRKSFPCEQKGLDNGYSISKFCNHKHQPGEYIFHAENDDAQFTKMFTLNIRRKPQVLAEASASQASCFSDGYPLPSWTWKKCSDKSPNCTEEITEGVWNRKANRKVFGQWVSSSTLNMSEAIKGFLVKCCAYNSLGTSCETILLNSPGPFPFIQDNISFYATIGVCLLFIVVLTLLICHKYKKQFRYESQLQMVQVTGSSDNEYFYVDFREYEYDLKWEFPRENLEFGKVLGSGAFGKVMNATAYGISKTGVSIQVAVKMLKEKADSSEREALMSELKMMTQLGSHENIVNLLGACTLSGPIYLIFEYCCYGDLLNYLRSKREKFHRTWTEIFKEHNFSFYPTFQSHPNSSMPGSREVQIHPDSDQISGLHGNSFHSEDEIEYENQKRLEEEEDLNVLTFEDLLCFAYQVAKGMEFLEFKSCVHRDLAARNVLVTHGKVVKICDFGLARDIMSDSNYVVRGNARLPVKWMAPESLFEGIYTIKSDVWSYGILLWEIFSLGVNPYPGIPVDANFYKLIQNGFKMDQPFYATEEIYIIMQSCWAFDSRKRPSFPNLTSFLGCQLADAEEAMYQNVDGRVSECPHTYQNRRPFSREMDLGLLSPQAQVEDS
Description: (§1) FLT3/FLT3-ITD LanthaScreen Assays
(§2) Assays were performed in a 10 μl-volume in 384-well polypropylene microplates (Perkin Elmer Proxiplate, cat. No. 6059480) at ambient temperature. Optimized 1× assay buffer was 50 mM Hepes pH 7.5, 2 mM DTT, 0.01% Tween, 0.01% BSA, 10 mM MgCl2. For compound screening FLT3 (final concentration, f.c.=[…]) or FLT3-ITD (f.c.=[…]) was added using a Multidrop Combi (ThermoFisher Scientific, Waltham, MA) and preincubated for 10 min. Reactions were started by adding fluorescein-poly GT (f.c.=200 nM) and ATP (f.c.=57 μM) substrates. Reactions proceeded for 40 minutes. The reactions were stopped with a detection mixture of EDTA (f.c.=20 mM) and terbium-conjugated anti-phoso tyrosine antibody pY20 (f.c.=2 nM). The plates were sealed and read on an Envision (PerkinElmer, Waltham, MA) using 340 nm excitation and emission reads at 495 and 520 nM.

METTL3/METTL14 = METTL3/METTL14 (Homo sapiens, UniProt Q86U44); test: METTL3-14 standard enzyme assay (3H-SAM flashplate); details: Table 4; METTL3 biochemical assay
Method in brief: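 Radiometric methyltransferase read-out: after quenching with excess unlabelled SAM (15 μM), biotinylated RNA was captured on streptavidin flashplates (2 h, 25° C) and counted. Reactions contained 2.5 nM enzyme (5 min preincubation), 100 nM RNA and 100 nM 3H-SAM, ran 30 min in HEPES pH 7.5 buffer with KCl, MgCl2, DTT.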

PRMT5-MEP50 = PRMT5-MEP50 (Homo sapiens, UniProt O14744); test: PRMT5 assay (3H-SAM flashplate); details: Table 4; PRMT5 biochemical assay
Method in brief: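 Radiometric methyl-transfer read-out: 3H-methyl transferred to a 3′-biotinylated, acetylated H4 peptide substrate (100 nM) from 3H-SAM (250 nM), captured on streptavidin scintillation plates. Enzyme complex 2.5 nM, pH 8.0 Tris buffer with DTT and Tween, compound preincubation 5 min, 60 min reaction stopped with excess unlabeled SAM.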

FLT3-ITD [2] = target: T2, FLT3-ITD (Homo sapiens, UniProt P36888); test: FLT3-ITD LanthaScreen assay; type: biochemical; details: Table 4
T2 sequence (P36888 1-993): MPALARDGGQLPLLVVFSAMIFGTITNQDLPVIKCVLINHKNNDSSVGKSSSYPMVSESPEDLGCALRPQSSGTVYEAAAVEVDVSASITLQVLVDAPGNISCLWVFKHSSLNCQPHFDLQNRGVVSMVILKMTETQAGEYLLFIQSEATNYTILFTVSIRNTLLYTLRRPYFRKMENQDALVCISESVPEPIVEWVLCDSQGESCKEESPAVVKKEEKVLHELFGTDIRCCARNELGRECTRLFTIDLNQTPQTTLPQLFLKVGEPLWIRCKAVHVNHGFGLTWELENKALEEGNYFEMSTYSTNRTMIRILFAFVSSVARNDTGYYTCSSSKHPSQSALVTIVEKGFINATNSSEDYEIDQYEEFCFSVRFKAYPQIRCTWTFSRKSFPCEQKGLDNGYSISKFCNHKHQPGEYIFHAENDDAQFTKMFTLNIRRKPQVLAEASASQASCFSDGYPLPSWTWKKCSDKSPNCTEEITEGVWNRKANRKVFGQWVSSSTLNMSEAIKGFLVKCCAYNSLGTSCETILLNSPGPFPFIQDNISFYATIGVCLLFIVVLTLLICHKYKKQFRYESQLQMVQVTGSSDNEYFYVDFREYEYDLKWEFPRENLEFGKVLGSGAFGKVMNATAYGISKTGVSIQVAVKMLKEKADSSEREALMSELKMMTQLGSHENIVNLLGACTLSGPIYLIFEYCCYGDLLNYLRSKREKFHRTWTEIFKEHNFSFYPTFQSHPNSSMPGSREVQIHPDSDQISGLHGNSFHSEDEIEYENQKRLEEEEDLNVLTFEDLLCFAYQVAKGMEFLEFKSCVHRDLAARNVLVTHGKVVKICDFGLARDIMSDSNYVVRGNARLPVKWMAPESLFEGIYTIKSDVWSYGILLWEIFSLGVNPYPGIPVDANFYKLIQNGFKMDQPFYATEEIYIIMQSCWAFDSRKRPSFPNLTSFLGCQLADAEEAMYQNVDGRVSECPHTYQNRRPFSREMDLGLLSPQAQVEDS
Description: as §1, §2

FLT3-ITD [3] = target: T2, FLT3-ITD; test: FLT3-ITD Caliper assay; type: biochemical; details: Table 4; read-out: FLT3-ITD Calipher assay IC50
Description: (§3) FLT3/FLT3-ITD Caliper Assays
(§4) Assays were performed in a 20 μl-volume in 384-well polypropylene microplates (Perkin Elmer Proxiplate, cat. No. 6059480) at ambient temperature. Optimized 1× assay buffer was 50 mM Hepes pH 7.5, 2 mM DTT, 0.01% Tween, 0.01% BSA, 10 mM MgCl2. For compound screening FLT3 (final concentration, f.c.=0.9 nM) or FLT3-ITD (f.c.=7 nM) was added using a Multidrop Combi (ThermoFisher Scientific, Waltham, MA) and preincubated for 10 min. Reactions were started by adding fluorescein-peptide (sequence 5-FAM-EAIYAAPFAKKK-CONH2) (f.c.=300 μM) and ATP (FLT3 f.c.=97 μM FLT3-ITD f.c.=146 μM) substrates. Reactions proceeded for 60 minutes. The reactions were stopped with LabChip ProfilerPro Separation Buffer containing EDTA (f.c.=20 mM). The plates were read on a Caliper microfluidics reader (PerkinElmer, Waltham, MA).

FLT3 [4] = target: T1, FLT3; test: FLT3 Caliper assay; type: biochemical; details: Table 4; read-out: FLT3 Calipher assay IC50
Description: as §3, §4

Chain of METTL3/METTL14 (Q86U44 whole entry, species assumed): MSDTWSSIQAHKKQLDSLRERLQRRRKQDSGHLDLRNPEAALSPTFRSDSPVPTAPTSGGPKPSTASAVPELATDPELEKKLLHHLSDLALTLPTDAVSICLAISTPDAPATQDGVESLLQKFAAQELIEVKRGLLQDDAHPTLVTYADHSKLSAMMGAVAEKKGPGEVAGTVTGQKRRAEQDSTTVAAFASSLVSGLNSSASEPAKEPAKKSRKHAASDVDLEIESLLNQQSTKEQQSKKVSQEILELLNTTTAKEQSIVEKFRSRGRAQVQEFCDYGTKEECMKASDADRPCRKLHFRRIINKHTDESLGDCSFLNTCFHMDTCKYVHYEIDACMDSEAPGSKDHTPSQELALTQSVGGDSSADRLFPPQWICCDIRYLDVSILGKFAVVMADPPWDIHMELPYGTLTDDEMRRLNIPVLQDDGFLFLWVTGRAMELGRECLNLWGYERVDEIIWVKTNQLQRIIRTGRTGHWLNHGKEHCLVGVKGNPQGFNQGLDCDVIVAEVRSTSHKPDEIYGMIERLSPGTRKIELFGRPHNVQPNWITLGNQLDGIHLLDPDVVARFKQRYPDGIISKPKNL
Chain of METTL3/METTL14 (Q9HCE5 whole entry partner, species assumed): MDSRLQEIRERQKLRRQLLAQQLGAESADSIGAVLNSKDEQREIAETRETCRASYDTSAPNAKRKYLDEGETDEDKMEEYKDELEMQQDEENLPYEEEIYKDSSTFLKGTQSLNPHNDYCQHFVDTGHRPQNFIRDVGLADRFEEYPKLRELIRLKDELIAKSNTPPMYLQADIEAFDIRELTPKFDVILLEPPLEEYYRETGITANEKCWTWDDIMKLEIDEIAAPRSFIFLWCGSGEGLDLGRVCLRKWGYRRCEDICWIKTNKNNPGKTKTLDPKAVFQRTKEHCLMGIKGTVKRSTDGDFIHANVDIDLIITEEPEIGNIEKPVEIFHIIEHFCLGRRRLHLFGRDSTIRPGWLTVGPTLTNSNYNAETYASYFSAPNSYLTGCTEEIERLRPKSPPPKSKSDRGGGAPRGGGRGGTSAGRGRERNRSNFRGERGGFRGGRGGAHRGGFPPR
Chain of PRMT5-MEP50 (O14744 whole entry): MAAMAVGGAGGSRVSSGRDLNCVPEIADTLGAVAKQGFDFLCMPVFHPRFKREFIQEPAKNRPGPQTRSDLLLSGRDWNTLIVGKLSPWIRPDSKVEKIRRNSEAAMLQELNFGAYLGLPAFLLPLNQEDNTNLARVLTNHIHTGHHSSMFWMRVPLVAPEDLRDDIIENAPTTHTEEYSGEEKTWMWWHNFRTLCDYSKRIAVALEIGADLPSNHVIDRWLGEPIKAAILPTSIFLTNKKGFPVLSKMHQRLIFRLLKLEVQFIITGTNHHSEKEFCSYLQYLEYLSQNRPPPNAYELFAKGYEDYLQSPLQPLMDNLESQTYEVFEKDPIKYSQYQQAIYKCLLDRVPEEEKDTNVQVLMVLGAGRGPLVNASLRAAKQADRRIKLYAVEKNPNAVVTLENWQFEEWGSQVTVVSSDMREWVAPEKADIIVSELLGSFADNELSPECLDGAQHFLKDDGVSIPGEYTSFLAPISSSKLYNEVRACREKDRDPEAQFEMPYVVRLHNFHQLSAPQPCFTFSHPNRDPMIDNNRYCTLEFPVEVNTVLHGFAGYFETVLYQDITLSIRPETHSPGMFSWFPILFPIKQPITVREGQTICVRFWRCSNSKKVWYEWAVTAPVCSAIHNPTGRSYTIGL
Chain of PRMT5-MEP50 (Q9BQA1 whole entry partner): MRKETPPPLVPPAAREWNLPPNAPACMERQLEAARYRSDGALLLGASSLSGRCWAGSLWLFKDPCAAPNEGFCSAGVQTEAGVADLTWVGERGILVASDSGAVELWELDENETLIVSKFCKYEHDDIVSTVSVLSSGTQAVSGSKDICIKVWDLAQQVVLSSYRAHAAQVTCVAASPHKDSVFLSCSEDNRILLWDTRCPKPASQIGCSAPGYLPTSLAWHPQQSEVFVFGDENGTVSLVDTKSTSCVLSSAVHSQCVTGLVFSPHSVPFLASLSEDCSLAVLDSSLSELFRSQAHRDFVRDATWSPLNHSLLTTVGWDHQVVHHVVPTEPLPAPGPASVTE

Row | Compound | IC50 (FLT3 [1]) [nM] | IC50 (METTL3/METTL14) [nM] | IC50 (PRMT5-MEP50) [nM] | IC50 (FLT3-ITD [2]) [nM] | IC50 (FLT3-ITD [3]) [nM] | IC50 (FLT3 [4]) [nM]
1 | CN1CCC(N(CCC#N)C(=O)[C@H]2O[C@@H](n3cc(-c4ccn(C)n4)c4c(N)ncnc43)[C@H](O)[C@@H]2O)CC1 [Compound I-144] | ≥ 1000 | 100 to 1000 | 10 to 100 | ≥ 1000 |  | 
2 | CN1CCC(N(C(=O)[C@H]2O[C@@H](n3cc(-c4ccn(C)n4)c4c(N)ncnc43)[C@H](O)[C@@H]2O)C2CC2)CC1 [Compound I-149] | ≥ 1000 | 10 to 100 | < 10 | ≥ 1000 |  | 
3 | CN(C)c1ccnc(NC(=O)[C@H]2O[C@@H](n3cc(-c4ccn(C)n4)c4c(N)ncnc43)[C@H](O)[C@@H]2O)c1 [Compound I-166] |  | 100 to 1000 | 10 to 100 |  | ≥ 1000 | ≥ 1000
4 | Cn1ccc(-c2cn([C@@H]3O[C@H](C(=O)NCCc4c[nH]cn4)[C@@H](O)[C@H]3O)c3ncnc(N)c23)n1 [Compound I-228] |  | 100 to 1000 | 100 to 1000 |  | ≥ 1000 | ≥ 1000
5 | Cn1ccc(-c2cn([C@@H]3O[C@H](C(=O)Nc4cc(NCC(F)F)ccn4)[C@@H](O)[C@H]3O)c3ncnc(N)c23)n1 [Compound I-169] |  | 100 to 1000 | 100 to 1000 |  | ≥ 1000 | ≥ 1000
6 | Cn1ccc(-c2cn([C@@H]3O[C@H](C(=O)N[C@H]4CCC(=O)NC4)[C@@H](O)[C@H]3O)c3ncnc(N)c23)n1 [Compound I-179] |  | ≥ 1000 | ≥ 1000 |  | ≥ 1000 | ≥ 1000
7 | Cn1ccc(-c2cn([C@@H]3O[C@H](C(=O)Nc4cccnc4)[C@@H](O)[C@H]3O)c3ncnc(N)c23)n1 [Compound I-156] |  | 100 to 1000 | 10 to 100 |  | ≥ 1000 | ≥ 1000
8 | Cn1ccc(-c2cn([C@@H]3O[C@H](C(=O)Nc4ccon4)[C@@H](O)[C@H]3O)c3ncnc(N)c23)n1 [Compound I-171] |  | ≥ 1000 | ≥ 1000 |  | ≥ 1000 | ≥ 1000
9 | Cn1ccc(-c2cn([C@@H]3O[C@H](C(=O)NCC4(O)CCNCC4)[C@@H](O)[C@H]3O)c3ncnc(N)c23)n1 [Compound I-198] |  | 100 to 1000 | 10 to 100 |  | ≥ 1000 | ≥ 1000
10 | Cn1ccc(-c2cn([C@@H]3O[C@H](C(=O)Nc4cc(N5CCC5)ccn4)[C@@H](O)[C@H]3O)c3ncnc(N)c23)n1 [Compound I-168] |  | 100 to 1000 | 10 to 100 |  | ≥ 1000 | ≥ 1000
11 | Cn1ccc(-c2cn([C@@H]3O[C@H](C(=O)N[C@@H]4CCC(=O)NC4)[C@@H](O)[C@H]3O)c3ncnc(N)c23)n1 [Compound I-180] |  | ≥ 1000 | ≥ 1000 |  | ≥ 1000 | ≥ 1000
12 | CCNc1ccnc(NC(=O)[C@H]2O[C@@H](n3cc(-c4ccn(C)n4)c4c(N)ncnc43)[C@H](O)[C@@H]2O)n1 [Compound I-36] |  | ≥ 1000 | 100 to 1000 |  | ≥ 1000 | ≥ 1000
13 | Cn1ccc(-c2cn([C@@H]3O[C@H](C(=O)N4CCNCC4)[C@@H](O)[C@H]3O)c3ncnc(N)c23)n1 [Compound I-176] |  | 100 to 1000 | 100 to 1000 |  | ≥ 1000 | ≥ 1000
14 | Cn1ccc(-c2cn([C@@H]3O[C@H](C(=O)N4CCNC(=O)C4)[C@@H](O)[C@H]3O)c3ncnc(N)c23)n1 [Compound I-204] |  | ≥ 1000 | ≥ 1000 |  | ≥ 1000 | ≥ 1000
15 | CNc1nc2ccc(NC(=O)[C@H]3O[C@@H](n4cc(-c5ccn(C)n5)c5c(N)ncnc54)[C@H](O)[C@@H]3O)cc2[nH]1 [Compound I-142] |  | < 10 | < 10 |  | ≥ 1000 | ≥ 1000
16 | C[C@@H](NC(=O)[C@H]1O[C@@H](n2cc(-c3ccn(C)n3)c3c(N)ncnc32)[C@H](O)[C@@H]1O)C1CCNCC1 [Compound I-196] |  | ≥ 1000 | 100 to 1000 |  | ≥ 1000 | ≥ 1000
17 | CC(=O)N1CCC(NC(=O)[C@H]2O[C@@H](n3cc(-c4ccn(C)n4)c4c(N)ncnc43)[C@H](O)[C@@H]2O)CC1 [Compound I-37] |  | ≥ 1000 | ≥ 1000 |  | ≥ 1000 | ≥ 1000
18 | CN(C)CCCNC(=O)[C@H]1O[C@@H](n2cc(-c3ccn(C)n3)c3c(N)ncnc32)[C@H](O)[C@@H]1O [Compound I-183] |  | ≥ 1000 | 10 to 100 |  | ≥ 1000 | ≥ 1000
19 | Cn1ccc(-c2cn([C@@H]3O[C@H](C(=O)N[C@H]4CCc5nc(N)sc5C4)[C@@H](O)[C@H]3O)c3ncnc(N)c23)n1 [Compound I-197] |  | 100 to 1000 | ≥ 1000 |  | ≥ 1000 | ≥ 1000
